Results from paper PMC12067093, “Discovery and optimisation of a covalent ligand for TRIM25 and its application to targeted protein ubiquitination” (Chemical Science, 2025).

Key:
TRIM25 PRYSPRY [1] = molecular target: T1, TRIM25 PRYSPRY (Homo sapiens, UniProt Q14258); test: Intact protein LCMS covalent labelling of recombinant TRIM25 PRYSPRY; assay type: binding; settings: 4 °C, 24 h
T1 construct: His6-TEV (cleaved yes); made in house; host or cells: Sf9 insect cells (baculovirus)
Experimental: 1 resin (ThermoFisher Scientific, 89964), eluted in 100 mM HEPES pH 7, 500 mM NaCl,
2 300 mM Imidazole, 5% glycerol, 1 mM TCEP, and stored at -80 °C.
5 into a pET49 vector with a His6-HRV-3C (Human Rhinovirus) tag and expressed in
6 BL21 E.coli cells (Agilent Technologies; 230132), with induction at 18 °C overnight by
7 addition of isopropyl β-D-1-thiogalactopyranoside (0.5 mM). Cells were harvested by
8 centrifugation at 4000 rpm in a Beckman J6-M1 rotor for 30 min at 4 °C, the
9 supernatant was discarded and cell pellets were either immediately lysed, or stored at
10 -80°C. The protein was purified via His6-capture on HisPurTM Ni-NTA resin in buffer
11 50 mM HEPES pH 7.5, 300 mM NaCl, 0.5 mM TCEP, 20 mM imidazole, washed
12 extensively with both high salt buffer (50 mM HEPES pH 7.5, 1 M NaCl, 0.5 mM TCEP,
13 20 mM imidazole) and wash buffer (50 mM HEPES pH 7.5, 300 mM NaCl, 0.5 mM
14 TCEP, 20 mM imidazole) before elution in buffer 50 mM HEPES pH 7.5, 300 mM NaCl,
15 0.5 mM TCEP, 500 mM imidazole, and tag cleavage with HRV-3C protease. Cleaved
16 protein was further purified by ion exchange chromatography and size exclusion
17 chromatography into 20 mM HEPES pH 7.5, 150 mM NaCl, 0.5 mM TCEP, and stored
21 For the original chloroacetamide fragment screen, 0.25 μM TRIM25 PRYSPRY or
23 25 mM HEPES pH 7.5, 50 mM NaCl buffer. For intact protein liquid chromatography
24 mass spectrometry (LCMS) kinetic characterisation, 0.5 μM TRIM25 PRYSPRY was
25 used. For selectivity testing with recombinant ubiquitin system protein panel, 10 µM
27 7.5, 50 mM NaCl buffer. Samples were then diluted to 0.5 µM for TRIM25 PRYSPRY,
28 TRIM21 PRYSPRY, OTUD7B OTU, ZRANB1 OTU or 1 µM for TRIM2 NHL, UBCH5B,
29 UBC13K92A, UEV1A, OTUD4 OTU, before injection into the LCMS. For TRIM25
30 PRYSPRY mutants, and for labelling of heterobifunctional compounds, 10 µM protein
32 mM NaCl buffer, and samples were diluted to 1 µM protein before injection into the […]

TRIM25 PRYSPRY [2] = molecular target: T1, TRIM25 PRYSPRY; test: Kinetic characterisation of covalent labelling by intact protein LCMS (kinact/KI); assay type: binding; settings: TRIM25 PRYSPRY 0.5 μM, 4 °C
Experimental: 8 were characterised by kinetic reaction monitoring by intact protein LCMS. 0.5 µM
10 dilution series (final compound concentrations 100 µM (only for fragments 1 – 8),
12 and 1% DMSO-only control also used). Assays were performed in technical duplicates
Protein and compounds were incubated at 4 °C, in 25 mM HEPES
15 pH 7.5, 50 mM NaCl buffer, with each timepoint and replicate in a separate well.
18 measurement were saved with each reading and used for kinetic calculations.
19 protein masses were recorded, deconvoluted and percentage labelling values
20 extracted in the same way as described above. Percentage labelling values were
21 plotted against time in Prism 10 (GraphPad), and curves fitted separately for each
22 replicate to a one-phase association model with constraints Y0 = 0, and plateau = 100.
23 Observed rate constants (k obs, h-1, generated in Prism 10 as K values) were then
26 of two or three replicates to a straight line model with constraint Y-intercept = 0.
27 gradient of these plots (converted from µM-1h-1 to M-1s-1) gives the pseudo-first order
28 rate parameter, kinact/K I (M-1s-1), for each compound. kinact/KI values are reported as
29 mean ± SD of the slope based on a linear fit model, n = 2 or 3. For n = 2 data, errors
30 are reported as standard errors of fit, as calculated in Prism 10. For n = 3 data, errors […]

[3] = buffer; cited from earlier work
[4] = fragment screen: fragment 50 μM, TRIM25 PRYSPRY […]

T1 sequence (Q14258 435-630): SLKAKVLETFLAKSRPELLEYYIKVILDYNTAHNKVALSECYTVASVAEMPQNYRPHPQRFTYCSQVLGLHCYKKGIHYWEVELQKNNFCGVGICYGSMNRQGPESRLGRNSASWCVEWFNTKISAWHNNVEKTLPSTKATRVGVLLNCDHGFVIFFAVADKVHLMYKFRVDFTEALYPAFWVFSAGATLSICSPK

## N#Cc1cnccc1NC(=O)C1CCCN(C(=O)CCl)C1 (stereo not shown) [Compound 12]
TRIM25 PRYSPRY [1]; purified compound 50 μM, TRIM25 PRYSPRY 10 μM
  TRIM25 PRYSPRY labelling (%): 51%
TRIM25 PRYSPRY [2]; purified compounds, mean ± SD, n = 3
  kinact/KI: 0.26 ± 0.01 M⁻¹ s⁻¹

## O=C(CCl)N1CCCN(C(=O)c2ccc(Cl)cc2)CC1 [Fragment 1]
TRIM25 PRYSPRY [1]; [4]
  TRIM25 PRYSPRY labelling (%): 55%

## CCN1C(=O)C2CN(C(=O)CCl)CCN2C1=O (stereo not shown) [Fragment 2]
TRIM25 PRYSPRY [1]; [4]
  TRIM25 PRYSPRY labelling (%): 50%

## NC(=O)C1CCCCN1C(=O)CCl (stereo not shown) [Fragment 3]
TRIM25 PRYSPRY [1]; [4]
  TRIM25 PRYSPRY labelling (%): 39%
TRIM25 PRYSPRY [2]; eight timepoints across 24 h, n = 2, mean ± SE of fit
  kinact/KI: 0.13 ± 0.01 M⁻¹ s⁻¹

## C=CC(=O)Nc1cc(Nc2nccc(-c3cn(C)c4ccccc34)n2)c(OC)cc1N(C)CCN(C)C [osimertinib]
[3]
  GSH t1/2: 1.3 h
